Measurements from PubChem BioAssay AID1963980 (Molecular Pharmacology Branch, DTP, NCI, 2024).
pIC50: −log10 of the molar value.

Test system: 475296-252-R-J1-PDC spheroid viability
Assay: Anticancer human tumor 475296-252-R-J1-PDC patient-derived rectal carcinoma cell line growth inhibition [PI3K]
Details: spheroids with HUVEC and MSC; for pIC50: curve of first compound; for viability, T/C: stronger effect = lower value
Procedure, shortened: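 Agents were dosed from a top concentration near clinical Cmax (otherwise 10 microM) in half-log decrements, alone or combined with PI3K inhibitors. The spheroids contain tumor cells plus endothelial (HUVEC) and MSC stroma; viability is measured.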

[1] = second compound 0.00316 µM, first compound 0.0316 µM
[2] = second compound 0.00316 µM, first compound 0.1 µM
[3] = second compound 0.00316 µM, first compound 0.316 µM
[4] = second compound 0.00316 µM, first compound 1 µM
[5] = second compound 0.00316 µM, first compound 3.16 µM
[6] = second compound 0.00316 µM, first compound 10 µM
[7] = second compound 0.01 µM, first compound 0.0316 µM
[8] = second compound 0.01 µM, first compound 0.1 µM
[9] = second compound 0.01 µM, first compound 0.316 µM
[10] = second compound 0.01 µM, first compound 1 µM
[11] = second compound 0.01 µM, first compound 3.16 µM
[12] = second compound 0.01 µM, first compound 10 µM
[13] = second compound 0.0316 µM, first compound 0.0316 µM
[14] = second compound 0.0316 µM, first compound 0.1 µM
[15] = second compound 0.0316 µM, first compound 0.316 µM
[16] = second compound 0.0316 µM, first compound 1 µM
[17] = second compound 0.0316 µM, first compound 3.16 µM
[18] = second compound 0.0316 µM, first compound 10 µM
[19] = second compound 0.1 µM, first compound 0.0316 µM
[20] = second compound 0.1 µM, first compound 0.1 µM
[21] = second compound 0.1 µM, first compound 0.316 µM
[22] = second compound 0.1 µM, first compound 1 µM
[23] = second compound 0.1 µM, first compound 3.16 µM
[24] = second compound 0.1 µM, first compound 10 µM
[25] = second compound 0.316 µM, first compound 0.0316 µM
[26] = second compound 0.316 µM, first compound 0.1 µM
[27] = second compound 0.316 µM, first compound 0.316 µM
[28] = second compound 0.316 µM, first compound 1 µM
[29] = second compound 0.316 µM, first compound 3.16 µM
[30] = second compound 0.316 µM, first compound 10 µM
[31] = second compound 1 µM, first compound 0.0316 µM
[32] = second compound 1 µM, first compound 0.1 µM
[33] = second compound 1 µM, first compound 0.316 µM
[34] = second compound 1 µM, first compound 1 µM
[35] = second compound 1 µM, first compound 3.16 µM
[36] = second compound 1 µM, first compound 10 µM
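Note: spheroids exposed to agents for seven days before readout.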

C=CC(=O)N1CCN(c2nc(=O)n(-c3c(C)ccnc3C(C)C)c3nc(-c4c(O)cccc4F)c(F)cc23)C(C)C1 (centres undefined) + COc1c(OCCCN2CCOCC2)ccc2c3n(c(=NC(=O)c4cnc(N)nc4)nc12)CCN3
pIC50 (second compound 0.00316 µM): < 5.00
pIC50 (second compound 0.01 µM): < 5.00
pIC50 (second compound 0.0316 µM): < 5.00
pIC50 (second compound 0.1 µM): < 5.00
pIC50 (second compound 0.316 µM): < 5.00
pIC50 (second compound 1 µM): < 5.00
viability, T/C [1]: 102%
viability, T/C [2]: 101%
viability, T/C [3]: 101%
viability, T/C [4]: 99.4%
viability, T/C [5]: 110%
viability, T/C [6]: 106%
viability, T/C [7]: 94.3%
viability, T/C [8]: 99.2%
viability, T/C [9]: 93.8%
viability, T/C [10]: 105%
viability, T/C [11]: 106%
viability, T/C [12]: 98.1%
viability, T/C [13]: 94.4%
viability, T/C [14]: 91.1%
viability, T/C [15]: 91.2%
viability, T/C [16]: 98.7%
viability, T/C [17]: 91.4%
viability, T/C [18]: 108%
viability, T/C [19]: 91.6%
viability, T/C [20]: 85.5%
viability, T/C [21]: 84%
viability, T/C [22]: 97.8%
viability, T/C [23]: 86%
viability, T/C [24]: 87.1%
viability, T/C [25]: 75.7%
viability, T/C [26]: 78.3%
viability, T/C [27]: 64.9%
viability, T/C [28]: 83.6%
viability, T/C [29]: 77.5%
viability, T/C [30]: 81%
viability, T/C [31]: 58.2%
viability, T/C [32]: 65.7%
viability, T/C [33]: 63.7%
viability, T/C [34]: 63.9%
viability, T/C [35]: 58.1%
viability, T/C [36]: 69.8%

CC(Cn1ccc(-c2ccc(C#N)c(Cl)c2)n1)NC(=O)c1cc(C(C)O)[nH]n1 (centres undefined) + COc1c(OCCCN2CCOCC2)ccc2c3n(c(=NC(=O)c4cnc(N)nc4)nc12)CCN3
pIC50 (second compound 0.00316 µM): < 5.00
pIC50 (second compound 0.01 µM): < 5.00
pIC50 (second compound 0.0316 µM): < 5.00
pIC50 (second compound 0.1 µM): < 5.00
pIC50 (second compound 0.316 µM): < 5.00
pIC50 (second compound 1 µM): < 5.00
viability, T/C [1]: 106%
viability, T/C [2]: 99.3%
viability, T/C [3]: 103%
viability, T/C [4]: 91.7%
viability, T/C [5]: 107%
viability, T/C [6]: 94.7%
viability, T/C [7]: 102%
viability, T/C [8]: 101%
viability, T/C [9]: 111%
viability, T/C [10]: 95.8%
viability, T/C [11]: 102%
viability, T/C [12]: 87.7%
viability, T/C [13]: 97%
viability, T/C [14]: 87.6%
viability, T/C [15]: 89.7%
viability, T/C [16]: 81.2%
viability, T/C [17]: 90.6%
viability, T/C [18]: 88.2%
viability, T/C [19]: 84.6%
viability, T/C [20]: 88.7%
viability, T/C [21]: 77.8%
viability, T/C [22]: 95.3%
viability, T/C [23]: 91.6%
viability, T/C [24]: 83%
viability, T/C [25]: 73.8%
viability, T/C [26]: 74%
viability, T/C [27]: 73.4%
viability, T/C [28]: 71.7%
viability, T/C [29]: 79.1%
viability, T/C [30]: 67.3%
viability, T/C [31]: 65.2%
viability, T/C [32]: 68.7%
viability, T/C [33]: 75.8%
viability, T/C [34]: 62.2%
viability, T/C [35]: 71%
viability, T/C [36]: 64%
